# DBAASP
# Assays:
# Test in all cases: ≥ marks a high value that may be exact or a test limit, other limits are often not marked, values filed in µg/mL are converted to µM
# Escherichia coli UB1005 = test system: Escherichia coli UB1005
# [1] = test system: Lacticaseibacillus rhamnosus 1.0936
# [2] = test system: Lacticaseibacillus rhamnosus 1.0385
# Escherichia coli K88 = test system: Escherichia coli K88
# [3] = test system: Staphylococcus aureus ATCC 43300
# [4] = test system: Lacticaseibacillus rhamnosus 7469
# [5] = test system: Staphylococcus aureus ATCC 29213
# [6] = test system: Lacticaseibacillus rhamnosus 1.0911
# [7] = test system: Salmonella enterica subsp. enterica serovar Typhimurium C77-31
# [8] = test system: Lactiplantibacillus plantarum 8014
# [9] = test system: Salmonella enterica subsp. enterica serovar Typhimurium ATCC 14028
# [10] = test system: Pseudomonas aeruginosa ATCC 27853
# [11] = test system: Escherichia coli ATCC 25922
# [12] = test system: Salmonella enterica subsp. enterica serovar Pullorum C79-13
# [13] = test system: Staphylococcus aureus ATCC 25923
# Escherichia coli K99 = test system: Escherichia coli K99
# [14] = test system: Staphylococcus aureus FDA 486
# [15] = test system: Pseudomonas aeruginosa 15159
# [16] = test system: Staphylococcus aureus 2844
# [17] = test system: Staphylococcus epidermidis ATCC 12228
# [18] = test system: Bacillus subtilis ATCC 23857
# [19] = test system: Cronobacter sakazakii ATCC 29544
# [20] = test system: Staphylococcus aureus ATCC 33591
# [21] = test system: Candida krusei ATCC 20029
# [22] = test system: Acinetobacter baumannii ATCC 19606
# [23] = test system: Cryptococcus neoformans ATCC 24067
# [24] = test system: Cryptococcus gattii ATCC 32608
compound,measurement,setting,value
CC(C)C[C@H](NC(=O)[C@H](CC(C)C)NC(=O)[C@H](Cc1c[nH]c2ccccc12)NC(=O)[C@H](Cc1c[nH]c2ccccc12)NC(=O)[C@H](Cc1c[nH]c2ccccc12)NC(=O)[C@H](CCCN=C(N)N)NC(=O)[C@H](CS)NC(=O)[C@H](Cc1ccccc1)NC(=O)[C@H](Cc1ccc(O)cc1)NC(=O)[C@H](CO)NC(=O)[C@H](C)NC(=O)[C@@H](N)CS)C(N)=O [CASYFCRWWWLL],MIC,Escherichia coli UB1005,≥ 64 µM
same,MIC,[1],≥ 64 µM
same,MIC,[2],≥ 64 µM
same,MIC,Escherichia coli K88,≥ 64 µM
same,MIC,[3],> 64 µM
same,MIC,[4],≥ 64 µM
same,MIC,[5],> 64 µM
same,MIC,[6],≥ 64 µM
same,MIC,[7],≥ 64 µM
same,MIC,[8],≥ 64 µM
same,MIC,[9],> 64 µM
same,MIC,[10],> 64 µM
same,MIC,[11],> 64 µM
same,MIC,[12],≥ 64 µM
same,MIC,[13],> 64 µM
same,MIC,Escherichia coli K99,≥ 64 µM
CC(=O)N[C@@H](CCC(=O)O)C(=O)N[C@@H](Cc1c[nH]c2ccccc12)C(=O)N[C@@H](CCCCN)C(=O)N[C@@H](CCCN=C(N)N)C(=O)N[C@@H](Cc1c[nH]c2ccccc12)C(=O)N[C@H](C(=O)N[C@@H](CCC(N)=O)C(=O)N[C@@H](CCCN=C(N)N)C(=O)N[C@@H](Cc1c[nH]c2ccccc12)C(=O)N[C@@H](CCCCN)C(=O)N[C@@H](CC(=O)O)C(=O)N[C@@H](Cc1c[nH]c2ccccc12)C(=O)N[C@@H](CC(C)C)C(=O)N[C@@H](CCCN=C(N)N)C(=O)N[C@@H](CC(N)=O)C(=O)N[C@@H](CC(C)C)C(=O)N[C@H](C(N)=O)C(C)C)C(C)C [EWKRWVQRWKDWLRNLV],MIC,[14],5 µM
same,MIC,[5],10 µM
same,MIC,[15],10 µM
same,MIC,[10],10 µM
same,MIC,[16],5 µM
CC[C@H](C)[C@H](N)C(=O)N[C@@H](CC(C)C)C(=O)NCC(=O)N[C@H](C(=O)N[C@H](C(=O)N[C@@H](CC(C)C)C(=O)NCC(=O)N[C@@H](CC(C)C)C(=O)N[C@@H](CC(C)C)C(=O)N[C@@H](CCCCN)C(=O)N[C@@H](Cc1ccccc1)C(=O)N[C@@H](CC(C)C)C(N)=O)[C@@H](C)CC)[C@@H](C)O [ILGTILGLLKFL],MIC,[17],2 µM
same,MIC,[5],4 µM
same,MIC,[18],4 µM
same,MIC,[19],≥ 256 µM
same,MIC,[13],4 µM
CC[C@H](C)[C@H](NC(C)=O)C(=O)N[C@@H](Cc1c[nH]c2ccccc12)C(=O)N[C@@H](CC(C)C)C(=O)N[C@H](C(=O)N[C@@H](CCCCN)C(=O)N[C@@H](C)C(=O)N[C@@H](CC(C)C)C(=O)N[C@@H](CCCCN)C(=O)N[C@@H](Cc1ccccc1)C(=O)N[C@@H](CC(C)C)C(=O)NCC(=O)N[C@@H](CCCCN)C(=O)N[C@@H](CC(N)=O)C(=O)N[C@@H](CC(C)C)C(=O)NCC(=O)N[C@@H](CCCCN)C(N)=O)[C@@H](C)O [IWLTKALKFLGKNLGK],MIC,[20],4.27 µM
same,MIC,[17],2.13 µM
same,MIC,[21],30.5 µM
same,MIC,[22],2.68 µM
same,MIC,[23],8.55 µM
same,MIC,[24],3.38 µM
same,MIC,[10],24.2 µM
same,MIC,[11],3.01 µM
